According to patent US10016440B2, “Methods of enhancing antibody-dependent cellular cytotoxicity” (VentiRx Pharmaceuticals, Inc., priority 2010, dated 2018):

How the values were obtained:
Format in all cases: cell-based, human
[1] = test system: rituximab-coated HS-Sultan cells; assay: Rituximab-mediated ADCC of HS-Sultan cells with PBMC from donors genotyped for FcgR polymorphisms; conditions: for baseline ADCC (percent specific lysis): buffer control, E:T 50:1 (FIG. 4); for rituximab-mediated ADCC activity: unstimulated PBMC
Description: Percent specific lysis is shown for Rituxan-coated HS-Sultan cells incubated with PBMC effector cells at an E:T ratio of 50:1. PBMCs from a patient with the high affinity genotype FcgR2a131 H/H and FcgR3a V/V (solid rectangles) or a patient with the lower affinity genotype FcgR2a131 […] and FcgR3a V/F (open rectangles) were evaluated for ADCC after stimulation with buffer control (baseline) or stimulation with 500 nM ADCC enhancer.
ADCC is mediated through immune effector cells included NK cells that engage the Fc portion of the monoclonal antibody through specific receptors. Patients with single nucleotide polymorphisms in these receptors such as FcRgamma3a position 158 and FcRgamma2a position 131 have a poorer clinical prognosis presumably from poor ADCC due to a lower affinity of the receptor for the monoclonal antibody. […] To determine if this common polymorphism affects the baseline antibody-dependent cellular cytoxicity (ADCC) response and/or response to the ADCC enhancer molecule of the present invention (Compound VTX-2337), PBMCs from donors were genotyped for the two alleles encoding the F and V isoforms, respectively, and tested in vitro. We analyzed rituximab-mediated ADCC using unstimulated PBMC or VTX-2337-stimulated PBMC from 15 donors, including 10 donors with FF or FV phenotype and 5 donors with VV phenotype.
Blood was collected from healthy donors and PBMCs were isolated using a Ficoll gradient. PBMCs were activated by culturing them in the presence of 500 nM VTX-2337 at 37° C. in a humidified 5% CO2 incubator for 48 hours. Activated PBMCs were then incubated with rituximab-coated HS-Sultan cells loaded at a ratio of 100:1 for 4 hours. Lysis was determined by measuring release of the fluorescent dye Calcein AM from the HS-Sultan cells.

[2] = test system: breast cancer cell line MDA-MB-231; assay: Herceptin-mediated ADCC of MDA-MB-231 cells by PBMC effector cells (Calcein AM release); conditions: PBMCs activated with the ADCC enhancer (FIG. 3)
Description: (§1) Human Peripheral blood mononuclear cells (PBMCs) were isolated by Ficoll™ density gradient centrifugation and resuspended in RPMI containing 2% heat-inactivated FBS. PBMCs at a concentration of 1 to 3 million cells per mL were incubated with 10-500 nM ADCC enhancer in a humidified CO2 incubator for 18-72 hrs. Activated PBMCs were then used as effector cells in NK and ADCC assays. PBMCs activated with the ADCC enhancer were tested for the ability to enhance killing of the NK sensitive target cell line K562 or various tumor cells coated with monoclonal antibodies. Target cells were labeled with the fluorescent dye Calcein AM for 1 hour at 37° C. in a dark humidified CO2 incubator. […] Activated effector cells and labeled target cells were incubated in 96-well tissue culture plates at for 4 hours at 37° C. in a dark humidified CO2 incubator in an assay buffer containing HBSS+Ca/Mg+5% FBS. […] Fluorecence was quantified with a fluorescent microtiter plate reader. The % specific lysis was calculated as (Sample fluorescence-spontaneous fluorescence)*100/(100% fluorescence-spontaneous). 100% fluorescence was determined from wells that contained labeled target cells and detergent such at 0.1% Tween-20 or Triton X-100. Spontaneous fluorescence was determined from wells that contained assay buffer and target cells but not effector cells.

[3] = test system: breast cancer cell line SKBR3; assay: Herceptin-mediated ADCC of SKBR3 cells by PBMC effector cells (Calcein AM release); conditions: PBMCs activated with the ADCC enhancer (FIG. 3)
Description: as §1

Compound	baseline ADCC (percent specific lysis) ([1]; patient with high affinity genotype FcgR2a131 H/H and FcgR3a V/V)	baseline ADCC (percent specific lysis) ([1]; patient with lower affinity genotype FcgR2a131 A/A and FcgR3a V/F) [%]	rituximab-mediated ADCC activity ([1]; FF/FV donors, E:T 100:1 (FIG. 5)) [% specific lysis]	rituximab-mediated ADCC activity ([1]; VV donors, E:T 100:1 (FIG. 5)) [% specific lysis]	killing of Herceptin coated MDA-MB-231 targets [2]	killing of Herceptin coated SKBR3 targets [3] [%]	rituximab-mediated ADCC ([1]; PBMC stimulated with 500 nM VTX-2337 for 48 hours, low affinity FF/FV group, E:T 100:1 (FIG. 5)) [%]
Rituxan: anti-CD20 monoclonal antibody rituximab (Rituxan)	approximately 30%	10	20.5±2.5	31.7±2.9			
CCCN(CCC)C(=O)C1=Cc2ccc(-c3ccc(C(=O)N4CCCC4)cc3)cc2N=C(N)C1 [ADCC enhancer, {2-amino-8-[4-(pyrrolidinylcarbonyl)phenyl]-(3H-benzo[f]azepin-4-yl)}-N,N-dipropylcarboxamide]					40-60%	> 80	40.0±4.1
